Experimental data published in patent publication US20050002859A1, “COX-2-targeted imaging agents” (Vanderbilt University, priority 2003, published 2005).
pIC50: −log10 of the molar value.

Experiments:
[1] = molecular target: T1, COX-1 activity in uninduced macrophages (Mus musculus, UniProt P22437); assay: Inhibition of COX-1 activity in uninduced macrophages; format: cell-based, murine
T1 construct: endogenous in cells
T1 sequence (P22437 27-602): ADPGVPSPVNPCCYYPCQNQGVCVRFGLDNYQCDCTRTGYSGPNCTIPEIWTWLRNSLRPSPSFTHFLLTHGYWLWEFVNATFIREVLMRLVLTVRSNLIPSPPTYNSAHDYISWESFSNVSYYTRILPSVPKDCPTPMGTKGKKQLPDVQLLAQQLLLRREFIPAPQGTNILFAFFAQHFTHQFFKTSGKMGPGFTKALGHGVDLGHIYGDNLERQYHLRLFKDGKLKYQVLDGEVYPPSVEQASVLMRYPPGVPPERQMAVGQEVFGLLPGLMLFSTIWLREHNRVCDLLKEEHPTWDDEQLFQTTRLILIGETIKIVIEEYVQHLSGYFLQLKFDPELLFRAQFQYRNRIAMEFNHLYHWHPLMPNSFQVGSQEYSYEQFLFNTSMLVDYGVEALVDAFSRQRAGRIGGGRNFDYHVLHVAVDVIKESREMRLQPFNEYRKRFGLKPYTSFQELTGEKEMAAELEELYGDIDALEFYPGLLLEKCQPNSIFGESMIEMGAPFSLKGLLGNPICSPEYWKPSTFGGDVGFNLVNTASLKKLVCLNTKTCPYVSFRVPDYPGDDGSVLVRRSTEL

[2] = molecular target: T2, COX-2 activity in RAW 264.7 murine macrophage cell line (Mus musculus, UniProt Q05769); assay: Inhibition of COX-2 activity (PGD2 synthesis) in activated RAW264.7 macrophages; format: cell-based; details: read-out: IC50 for inhibition of COX-2 activity in RAW 264.7 macrophages
T2 construct: The macrophages were exposed to lipopolysaccharide and γ-interferon to induce COX-2; endogenous in cells
T2 sequence (Q05769 18-604): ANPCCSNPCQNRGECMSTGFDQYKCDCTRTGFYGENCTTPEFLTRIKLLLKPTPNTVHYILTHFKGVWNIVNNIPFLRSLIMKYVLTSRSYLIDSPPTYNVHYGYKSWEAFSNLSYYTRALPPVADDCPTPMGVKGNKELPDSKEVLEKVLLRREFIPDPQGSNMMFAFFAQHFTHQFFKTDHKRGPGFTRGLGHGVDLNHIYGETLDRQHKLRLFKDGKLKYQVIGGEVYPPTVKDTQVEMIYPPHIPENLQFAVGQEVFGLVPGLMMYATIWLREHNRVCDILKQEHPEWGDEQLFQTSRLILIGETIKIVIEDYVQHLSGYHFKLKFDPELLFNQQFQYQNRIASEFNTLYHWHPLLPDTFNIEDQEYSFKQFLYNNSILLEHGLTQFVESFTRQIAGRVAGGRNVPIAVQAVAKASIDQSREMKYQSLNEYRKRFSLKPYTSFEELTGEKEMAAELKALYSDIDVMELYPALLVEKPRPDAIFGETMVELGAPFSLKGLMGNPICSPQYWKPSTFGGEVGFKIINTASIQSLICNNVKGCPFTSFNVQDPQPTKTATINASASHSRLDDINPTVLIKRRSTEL
Description: Thus, NSAID derivatives that are identified as potentially useful in the methods described herein can be further tested using, for example, the RAW264.7 murine macrophage cell line. These cells are readily available (for example, from the American Type Culture Collection, Manassas, Va., United States of America) and are easily cultured in large numbers. They normally express low levels of COX-1 and very low to undetectable levels of COX-2. Upon exposure to bacterial lipopolysaccharide (LPS), however, COX-2 levels increase dramatically over the ensuing 24 hour period, and the cells produce PGD2 and PGE2 from endogenous arachidonic acid stores (generally, ˜1 nmol/10^7 cells total PG formation). After LPS exposure, the addition of exogenous arachidonic acid results in the formation of additional PGD2 and PGE2 as a result of metabolism by the newly synthesized COX-2.
This system provides a number of approaches for testing the inhibitory potency of COX-2-selective ligands (e.g., inhibitors). In general, following LPS activation, cells can be treated for 30 minutes with the desired concentrations of candidate derivative(s) in DMSO. ^14C-arachidonic acid can be added, and the cells can be incubated for 15 minutes at 37° C. Product formation can be assessed following extraction and TLC separation of the culture medium. Alternatively, the effects of candidate derivatives on PG synthesis from endogenous arachidonic acid can be assessed by incubating cells with desired concentrations of candidate derivatives 30 minutes prior to LPS exposure. Following a 24 hour incubation, medium can be collected and extracted, and the amount of PGD2 and/or PGE2 can be assayed by gas chromatography-mass spectrometry, liquid chromatography-mass spectrometry, or ELISA.
Inhibition of COX-2 Activity in Activated RAW264.7. Protocols for COX-2 inhibition in RAW264.7 cells have been previously described (Kalgutkar et al., 1998b). Briefly, cells (6.2×10^6 cells/T25 flask) were activated with lipopolysaccharide (1 μg/mL) and γ-interferon (10 U/mL) in serum-free DMEM for 7 hours and then treated with inhibitor (0-2 μM) for 30 minutes at 37° C. Exogenous arachidonate metabolism was determined by adding [1-^14C]-arachidonate acid (20 μM) for 15 minutes at 37° C. IC50 values are the average of two independent determinations.
The macrophages were exposed to lipopolysaccharide and γ-interferon to induce COX-2 and then treated with several concentrations of Compound 355.

COX-2 = molecular target: T3, COX-2 (Homo sapiens, UniProt P35354); assay: Inhibition of purified COX-2 by NSAID derivatives (species not stated); format: biochemical; details: purified enzyme
T3 sequence (P35354 18-604): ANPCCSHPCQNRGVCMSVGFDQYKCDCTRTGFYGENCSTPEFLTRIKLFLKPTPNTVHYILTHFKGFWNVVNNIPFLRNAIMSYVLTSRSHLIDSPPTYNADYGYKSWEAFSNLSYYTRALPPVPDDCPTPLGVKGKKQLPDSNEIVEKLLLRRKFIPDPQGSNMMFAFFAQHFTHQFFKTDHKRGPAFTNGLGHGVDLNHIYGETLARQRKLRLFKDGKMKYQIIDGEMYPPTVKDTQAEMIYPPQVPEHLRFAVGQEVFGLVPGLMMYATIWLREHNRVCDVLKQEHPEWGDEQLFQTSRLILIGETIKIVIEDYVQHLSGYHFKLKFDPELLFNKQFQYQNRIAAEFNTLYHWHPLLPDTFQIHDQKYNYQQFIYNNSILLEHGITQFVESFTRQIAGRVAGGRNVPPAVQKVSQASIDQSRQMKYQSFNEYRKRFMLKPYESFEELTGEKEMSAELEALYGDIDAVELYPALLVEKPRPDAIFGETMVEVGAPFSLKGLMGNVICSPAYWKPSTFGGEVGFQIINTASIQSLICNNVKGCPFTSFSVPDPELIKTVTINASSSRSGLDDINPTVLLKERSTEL
Procedure: (§1) While the TLC assay described above provides considerable information, it is labor-intensive for screening large numbers of candidate NSAID derivatives. Accordingly, as an alternative, a simplified assay can be used. Incubation conditions can be essentially as described above, except all candidate derivatives are first screened at a concentration of 1 mM with a preincubation time of 30 minutes. The substrate need not be radiolabeled, and the reaction can be stopped by the addition of 2 μL of formic acid. Product formation can be quantitated by enzyme-linked immunosorbent assay (ELISA) using commercially available kits. […] Other in vitro assay methods for screening NSAID derivatives for activity (e.g., selectivity for the COX-2 enzyme) can also be used by the skilled artisan.

[3] = Metabolism by rat liver microsomes; format: in vitro ADME; details: 0.125 mg/mL protein
Procedure: Preliminary metabolic studies were conducted using isolated liver microsome preparations.

[4] = test system: rat carageenan footpad edema; assay: Rat carageenan footpad edema model; format: in vivo
Procedure: The first is the rat carageenan footpad model. Maximal edema is obtained in this model 3 hours after carageenan injection.

[5] = rat, in vivo
COX-1 = molecular target: T4, COX-1 (Ovis aries, UniProt P05979); assay: Inhibition of COX-1 by NSAID derivatives (species not stated); format: biochemical
T4 sequence (P05979 25-600): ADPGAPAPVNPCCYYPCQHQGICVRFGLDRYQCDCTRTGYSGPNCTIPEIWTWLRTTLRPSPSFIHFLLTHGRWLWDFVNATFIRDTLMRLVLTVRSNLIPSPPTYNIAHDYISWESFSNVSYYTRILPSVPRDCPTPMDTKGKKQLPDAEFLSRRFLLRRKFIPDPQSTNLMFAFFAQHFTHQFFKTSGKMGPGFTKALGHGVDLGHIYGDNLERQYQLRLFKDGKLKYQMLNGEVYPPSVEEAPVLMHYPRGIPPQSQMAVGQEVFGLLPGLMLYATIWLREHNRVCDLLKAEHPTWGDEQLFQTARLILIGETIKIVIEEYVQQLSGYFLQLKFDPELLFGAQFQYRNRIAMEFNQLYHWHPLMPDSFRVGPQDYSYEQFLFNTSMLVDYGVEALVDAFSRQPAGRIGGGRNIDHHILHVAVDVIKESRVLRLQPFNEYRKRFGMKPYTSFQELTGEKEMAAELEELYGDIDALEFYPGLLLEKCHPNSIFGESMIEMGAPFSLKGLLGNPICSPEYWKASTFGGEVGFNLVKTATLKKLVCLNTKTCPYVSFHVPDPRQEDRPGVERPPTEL
Procedure: as §1

| Structure (SMILES) | concentration up to which COX-1 activity is not inhibited [1] [µM] | pIC50 [2] | pIC50 (COX-2) | half-life, rat liver microsomes [3] [h] | anti-inflammatory activity in rat footpad edema assay ([4]; following oral installation) | ED50 ([4]; rat carageenan footpad model (Example 14)) [mg/kg] | clearance half-life [5] [h] | half-life in plasma ([5]; po) [h] | oral bioavailability ([5]; po) [%] | pIC50 (COX-1) |
| --- | --- | --- | --- | --- | --- | --- | --- | --- | --- | --- |
| CCCCC#CCSc1ccccc1OC(=O)CF [F-APHS] | > 32 | 5.55 | 5.40 |  |  |  |  |  |  |  |
| COc1ccc2c(c1)c(CC(=O)Nc1ccc(F)cc1)c(C)n2C(=O)c1ccc(Cl)cc1 [Compound 18, p-fluorophenyl derivative of indomethacin amide] |  |  |  | 1.67 | anti-inflammatory activity | 0.25 | 4 | 4 | 30 | < 4.18 |
